Biological target: T1, PatD (Prochloron didemni, UniProt Q52QI6)
T1 sequence (Q52QI6 1-784): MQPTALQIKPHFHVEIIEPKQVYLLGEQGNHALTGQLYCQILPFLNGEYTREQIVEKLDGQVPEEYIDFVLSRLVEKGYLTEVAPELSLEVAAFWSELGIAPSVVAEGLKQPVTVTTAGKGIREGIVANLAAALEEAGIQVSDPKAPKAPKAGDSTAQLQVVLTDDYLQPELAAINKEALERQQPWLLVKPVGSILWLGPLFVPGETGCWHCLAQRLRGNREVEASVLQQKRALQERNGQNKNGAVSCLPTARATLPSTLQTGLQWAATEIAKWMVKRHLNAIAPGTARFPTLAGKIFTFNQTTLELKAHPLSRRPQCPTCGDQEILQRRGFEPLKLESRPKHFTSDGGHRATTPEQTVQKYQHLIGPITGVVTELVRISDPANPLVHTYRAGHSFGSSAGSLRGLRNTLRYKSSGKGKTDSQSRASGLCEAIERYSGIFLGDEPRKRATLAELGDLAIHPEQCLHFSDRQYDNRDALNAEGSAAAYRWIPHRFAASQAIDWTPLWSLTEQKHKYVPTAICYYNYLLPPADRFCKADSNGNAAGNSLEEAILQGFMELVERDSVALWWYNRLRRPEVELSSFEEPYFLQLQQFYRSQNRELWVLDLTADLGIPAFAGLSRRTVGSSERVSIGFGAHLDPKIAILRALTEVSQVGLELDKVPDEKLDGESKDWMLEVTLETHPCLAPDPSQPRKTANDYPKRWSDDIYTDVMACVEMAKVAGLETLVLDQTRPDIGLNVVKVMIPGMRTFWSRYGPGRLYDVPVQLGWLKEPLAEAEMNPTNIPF
Conditions: ATP 100 μM, TruE2 2 μM, PatD 0.6 μM, MgCl2, DTT, 30 min

Nc1ncnc2c1ncn2[C@@H]1O[C@H](COP(=O)(O)OP(=O)(O)OP(=O)(O)O)[C@@H](O)[C@H]1O [ATP]
HPLC of ATP hydrolysis to ADP: ATP was shown to be hydrolyzed to ADP

Source: article PMC3397156 (Chembiochem, 2010)
